Data as given in patent US4317768A, “Dihydropyridine derivatives as stabilizers for vinyl chloride polymers” (priority 1977, dated 1982).

Experiments:
[1] = Polarographic study of the oxidation potential; assay type: physicochemical; details: acetonitrile, 0.1 M lithium perchlorate, vitrous carbon electrode, calomel reference
Description: By a polarographic study of their oxidation potential, compared to well-known antioxidants such as 2,6-diterbutyl-4-methyl-phenol, 2-terbutyl-4-methoxy-phenol, 4-methoxy-phenol and hydroquinone.
Reference electrode: Calomel electrode containing a saturated solution of anhydrous lithium perchlorate as bridge liquid.
Working electrode: Vitrous carbon rotating electrode (2,500 r.p.m.)
Counter-electrode: Platinum electrode
Acetonitrile containing less than 0.1% of water and presenting no polarographic waves between -2.5 V and +2.5 V.
Anhydrous lithium perchlorate containing less than 1% of water.
A 0.1 M solution of lithium perchlorate in acetonitrile, treated and preserved on a 4 A molecular sieve.
Amplitude of exploration: 0 to 2 V
Speed of exploration: 10 mV/second
Sensitivity: 1.25 μA to 50 μA
Mean concentration: about 0.3×10^-3 mol/liter
Between each measurement, the vitrous carbon electrode and the platinum electrode were carefully cleaned with Joseph paper.

[2] = Static thermostability (GARDNER method), rigid PVC sheets, 210° C., 0.3 part stabilizer
Experimental: This study was carried out according to the GARDNER method, described in British Pat. No. 1,489,685.
The reference substance was 2-phenyl-indole, a well-known and widely used stabilizer.
The stabilizer (dihydropyridine or 2-phenyl-indole) and the other usual ingredients were mixed with powdered vinyl resins and the mixtures were calendered at a temperature of 160° C. to give rigid sheets.
The sheets were then heated in a thermostated oven (185° C. or 210° C.) for different intervals of time until incipient carbonization.
The coloration of the samples was compared to a standard scale of coloration, known as the GARDNER scale and was expressed in terms of the reference figures of the GARDNER scale.
This study was carried out with the following resin:
Polyvinyl chloride resin
SL 2016 is a solution of zinc-2-ethyl-hexanoate in a mixture of hydrocarbons boiling between 158° C. and 184° C.
The first trial was carried out at 210° C. with a resin containing 0.3 part by weight of stabilizer, the sheets being removed from the oven every three minutes over a period of 21 minutes.

[3] = Static thermostability (GARDNER), rigid co-polymer, 185° C.; details: for coloration, GARDNER scale: 0.1 part
Experimental: (§1) The study of the static thermostability of vinyl co-polymers was carried out according to the GARDNER method described above and, also in a more detailed manner in British Patent No. 1,489,685.
(a) Rigid co-polymer vinyl chloride-vinyl acetate
(§2) The following compound was prepared:
(§3) The sheets were heated in a ventilated oven at 185° C. and the following results were obtained: […]

[4] = Thermostability, flexible co-polymer (b), Metrastat oven 160° C.; details: 0.2 part
Experimental: as §1
(b) Flexible co-polymer vinyl chloride-vinyl acetate.
as §2
The resin was allowed to gel for 5 minutes at 120° C. and the sheets were heated at 160° C. in a Metrastat oven.

[5] = Thermostability, flexible co-polymer (c), Metrastat oven 160° C.; details: 0.3 part
Experimental: as §1
(c) Flexible co-polymer vinyl chloride-vinyl acetate
as §2
The sheets were heated in a Metrastat oven at 160° C. and the following results were obtained: […]

[6] = Thermostability, rigid co-polymer (d), ventilated oven 210° C.; details: 0.3 part
Experimental: as §1
(d) Rigid co-polymer vinyl chloride-vinylidene chloride
as §2
The sheets were heated in a ventilated oven at 210° C.

[7] = Comparison with 1,4-butanediol-β-aminocrotonate and methyl-β-aminocrotonate, rigid co-polymer, 185° C.; details: 0.5 part
Experimental: (a) Comparison with 1,4-butanediol-β-aminocrotonate and with methyl-β-aminocrotonate.
The following rigid co-polymer was prepared:
as §3

[8] = Comparison with stabilizer G1, 0.3 part, 185° C.
[9] = Comparison with 2-phenyl-indole, vinyl chloride-vinylidene chloride co-polymer, 210° C.; details: 0.3 part
Experimental: A second test was made using the following compound:
The sheets were heated in a ventilated oven at 210° C. and the following results were obtained: […]

[10] = Photostabilizing power, sheets exposed to the sun, co-polymer (a)
Experimental: (§4) The sheets were exposed to the sun and their colorations were also determined according to the GARDNER method.

[11] = Photostabilizing power, sheets exposed to the sun, rigid co-polymer (b)
Experimental: as §4

In the case of `COc1ccc(O)c(C(C)(C)C)c1` [2-Terbutyl-4-methoxy-phenol], the Oxidation potential [1] is reported as 0.81 ± 0.01 volts.
Compound `COc1ccc(O)cc1` [4-Methoxy-phenol] has an Oxidation potential [1] of 0.89 ± 0.01 volts.
With `CC1=C(C(=O)OCCOc2ccccc2)CC(C(=O)OCCOc2ccccc2)=C(C)N1` [Compound 28] the “coloration, GARDNER scale” value ([2]; 0 min) was 1, the “coloration, GARDNER scale” value ([2]; 3 min) was 1 and the “coloration, GARDNER scale” value ([2]; 6 min) was 1. For the same compound, the “coloration, GARDNER scale” value ([2]; 9 min) was 3, the “coloration, GARDNER scale” value ([2]; 12 min) was 4 and the “coloration, GARDNER scale” value ([2]; 15 min) was 5. The “coloration, GARDNER scale” value ([2]; 18 min) was 10, the “coloration, GARDNER scale” value ([2]; 21 min) was “Burnt” and the “thermostabilizing properties, in words” value [3] was “clearly show the thermostabilizing properties”. The “coloration, GARDNER scale” value ([3]; 0 min) was 1, the “coloration, GARDNER scale” value ([3]; 2 min) was 1 and the “coloration, GARDNER scale” value ([3]; 4 min) was 4. The “coloration, GARDNER scale” value ([3]; 6 min) was 10, the “coloration, GARDNER scale” value ([3]; 8 min) was 12 and the “coloration, GARDNER scale” value ([3]; 10 min) was 13. The “coloration, GARDNER scale” value ([3]; 12 min) was 15, the “coloration, GARDNER scale” value ([3]; 14 min) was 17 and the “coloration, GARDNER scale” value ([4]; 0 min) was 1. The “coloration, GARDNER scale” value ([4]; 30 min) was 2, the “coloration, GARDNER scale” value ([4]; 40 min) was 6 and the “coloration, GARDNER scale” value ([4]; 50 min) was 12. The “coloration, GARDNER scale” value ([4]; 60 min) was 15, the “coloration, GARDNER scale” value ([5]; 0 min) was 1 and the “coloration, GARDNER scale” value ([5]; 10 min) was 1. For the same compound, the “coloration, GARDNER scale” value ([5]; 20 min) was 2, the “coloration, GARDNER scale” value ([5]; 30 min) was 5 and the “coloration, GARDNER scale” value ([5]; 40 min) was 7. The “coloration, GARDNER scale” value ([5]; 50 min) was 10, the “coloration, GARDNER scale” value ([5]; 60 min) was 12 and the “coloration, GARDNER scale” value ([6]; 0 min) was 1.5. The “coloration, GARDNER scale” value ([6]; 3 min) was 2, the “coloration, GARDNER scale” value ([6]; 6 min) was 3 and the “coloration, GARDNER scale” value ([6]; 9 min) was 3.5. For the same compound, the “coloration, GARDNER scale” value ([6]; 12 min) was 7, the “coloration, GARDNER scale” value ([6]; 15 min) was 15 and the “coloration, GARDNER scale” value ([7]; 0 min) was 1. For the same compound, the “coloration, GARDNER scale” value ([7]; 2 min) was 1, the “coloration, GARDNER scale” value ([7]; 4 min) was 5 and the “coloration, GARDNER scale” value ([7]; 6 min) was 7. The “coloration, GARDNER scale” value ([7]; 8 min) was 11, the “coloration, GARDNER scale” value ([7]; 10 min) was 13 and the “coloration, GARDNER scale” value ([7]; 12 min) was 17. For the same compound, the “coloration, GARDNER scale” value ([8]; 0 min) was 1, the “coloration, GARDNER scale” value ([8]; 2 min) was 1 and the “coloration, GARDNER scale” value ([8]; 4 min) was 2. For the same compound, the “coloration, GARDNER scale” value ([8]; 6 min) was 4, the “coloration, GARDNER scale” value ([8]; 8 min) was 5 and the “coloration, GARDNER scale” value ([8]; 10 min) was 9. For the same compound, the “coloration, GARDNER scale” value ([8]; 12 min) was 11, the “coloration, GARDNER scale” value ([8]; 14 min) was 13 and the “coloration, GARDNER scale” value ([9]; 0 min) was 1.5. The “coloration, GARDNER scale” value ([9]; 3 min) was 2, the “coloration, GARDNER scale” value ([9]; 6 min) was 3 and the “coloration, GARDNER scale” value ([9]; 9 min) was 3.5. The “coloration, GARDNER scale” value ([9]; 12 min) was 7, the “coloration, GARDNER scale” value ([9]; 15 min) was 15 and the “Colour in GARDNER degrees” value ([10]; After 24 hours) was 1 GARDNER degrees. The “Colour in GARDNER degrees” value ([10]; Time 0) was 1 GARDNER degrees, the “Colour in GARDNER degrees” value ([11]; After 24 hours) was 3.5 GARDNER degrees and the “Colour in GARDNER degrees” value ([11]; Time 0) was 1.5 GARDNER degrees.
With `Oc1ccc(O)cc1` [Hydroquinone] the Oxidation potential [1] was 0.83 ± 0.01 volts.
